Measured values taken from US5420276A, “Analogs of oxetanyl purines and pyrimidines” (Abbott Laboratories, priority 1993, dated 1995).
≈ marks a conversion by molar mass, not a printed value. Like-named read-outs stand apart in the source and are kept apart here.

Columns and labels:
[1] = MTT test compound cytotoxicity in human foreskin fibroblasts; assay type: cell-based; details: hff cells, read-out: MTT assay (Percent of control)
Experimental: (§1) For the plaque reduction assay, sixth to twelfth passage human foreskin fibroblasts were seeded in wells of 12-well tissue culture plates and incubated at 37° C. in a humidified atmosphere containing 2% CO2 in air. Subconfluent HFF were rinsed with MEM and exposed to 0.5 ml/well of a suspension of VZV diluted in MEM+2% FBS for 2 hours at 37° C. Following the virus adsorption period, the inocula were removed and the infected cell layers were rinsed with MEM. Triplicate VZV-infected cell culture wells were treated with 1.0 ml of each concentration of test compound (in MEM+2% FBS). Six untreated virus-infected cell cultures and triplicate untreated uninfected cell cultures were fed with 1.0 ml of MEM+2% FBS to serve as controls. Wells containing uninfected HFF were treated with each concentration of test compound to monitor the test compound cytotoxicity. The 12-well plates were incubated at 37° C. in the CO2 incubator. At 48 hours post-virus infection (p.i.), fluids in all plate wells were replaced with fresh test compound and/or culture medium.
The test compound cytotoxicity control cultures were examined microscopically for gross morphologic changes, then treated with MTT and 30% SDS. The blue color of the MTT formazan was measured spectrophotometrically at 570 nm. Test compound cytotoxicity was determined by comparing the absorbance (O.D.) of each test compound control with the mean O.D. of the cell control cultures and expressed as percent of control.

[2] = Drug cytotoxicity in Vero cells (microscopic, CPE-inhibition assay); assay type: cell-based; details: african green monkey, minimum drug concentration causing any cytotoxicity, read-out: MTC
Experimental: (§2) Mammalian cells were pregrown as monolayers in wells of COSTAR 96-well tissue culture plates using suitable cell culture media. Stock viruses were pretitered according to the method of Reed and Muench (Amer. J. Hyg. 27:493-497, 1938) and diluted in cell culture medium to yield 32 CCID50 (cell culture infectious dose, 50%) units per 0.1 ml. Antiviral assays were designed to test seven concentrations of each compound, from cytotoxic to noncytotoxic levels, in triplicate against each of the challenge viruses in microtiter plate wells containing suitable cell monolayers. To each of the replicate cell cultures were added 0.1 ml of the test drug solution and 0.1 ml of virus suspension. Cell controls containing medium alone, virus controls containing medium and virus, and drug cytotoxicity controls containing medium and each drug concentration were run simultaneously with the test samples assayed in each experiment. […] The cell monolayers were examined microscopically for virus-induced CPE and for drug cytotoxicity.
(§3) Antiviral activity was determined by calculating the degree of inhibition of virus-induced CPE in drug-treated, virus-infected cell cultures by means of a virus rating (VR). The VR is a standard weighted measurement of antiviral activity taking into account both the degree of CPE inhibition and drug cytotoxicity, and is determined by a modification of the method of Ehrlich et al. (Ann. N.Y. Acad. Sci. 130: 5-16, 1965) as described below. CPE was graded for each individual culture in each microtiter plate well according to the following scale:
(§4) The minimum inhibitory drug concentration which reduced the cytopathogenic effect (CPE) by 50% (MIC50) was calculated by using a regression analysis program for semilog curve fitting. A therapeutic index (TI) for each active compound for each susceptible virus was determined by dividing the minimum cytotoxic concentration of the test compound by the MIC50.

[3] = tested on: Varicella-Zoster Virus (VZV) clinical isolate DM625; assay: VZV plaque reduction assay; assay type: cell-based; details: Human alphaherpesvirus 3, 144 h, VZV in HFF; for EC50: minimum concentration required to inhibit plaque formation by 50%, read-out: MIC50
Experimental: The compounds of the invention were evaluated for selective activity against varicella zoster virus (VCV) utilizing a plaque reduction assay procedure. The challenge virus was a clinical isolate designated DM625, obtained from Dr. Richard Whitley of the University of Alabama Hospitals, Birmingham, Ala. The virus had been passaged and titrated in cultures of human foreskin fibroblasts (HFF).
as §1
Six days p.i., the VZV plaques were counted (unstained, low magnification).The effect of each concentration of test compound on plaque formation was determined by comparing the mean number of plaques in the replicate test compound-treated cultures with the mean plaque counts of the untreated virus control cultures.
The MIC50 value is the minimum concentration of test Compound required to inhibit plaque formation by 50%.

[4] = tested on: Herpes simplex type 2 (HSV-2) strain MS; assay: CPE-inhibition assay, herpes simplex type 2 strain MS in Vero cells; assay type: cell-based, herpes simplex virus type 2; details: for VR (Virus Rating): HSV-2 (MS)
Experimental: The challenge viruses were propagated and assayed in cells that were pregrown as monolayer cultures in plastic tissue culture flasks and 96-well plates, using cell culture media appropriate for the host cell cultures. The following viruses and host cell cultures were employed:
green monkey kidney (Vero)
On the day of use, a weighed sample of each compound to be evaluated was dissolved and diluted in serial 10^0.5 dilutions in the culture medium appropriate for each virus-host cell system.
as §2, §3
4=100% of the cells affected by virus;
3=75% of the cells affected by virus;
2=50% of the cells affected by virus;
1=25% of the cells affected by virus;
0=No CPE; normal cell monolayer.
The VR was calculated as 0.1 of the sum of the numerical differences between the recorded CPE grade of each test well and that of the corresponding virus control in the culture plate. Numerical differences between the scores of test wells containing a drug concentration which was partially cytotoxic (p) and their corresponding virus controls were halved.
as §4

Row | Compound | viability at 0.1 µM [1] [%] | viability at 0.32 µM [1] [%] | viability at 1 µM [1] [%] | viability at 3.2 µM [1] [%] | MCC ([2]; HSV-1 (E-377)) [µg/mL] | MCC ([2]; HSV-2 (MS)) [µg/mL] | inhibition at 0.032 µM [3] [%] | inhibition at 0.1 µM [3] [%] | inhibition at 0.32 µM [3] [%] | inhibition at 1 µM [3] [%] | inhibition at 3.2 µM [3] [%] | EC50 [3] [µg/mL] | VR (Virus Rating) [4] | other results
1 | Nc1ccn([C@@H]2O[C@H](CO)[C@H]2CO)c(=O)n1 [Example 22, 1-([2'R,3'R,4'S]-3',4'-Bis(hydroxymethyl)-2'-oxetanyl)cytosine] | 88 | 81 | 77 | 76 | 10 | 10 | 29 | 86 | 100 | 100 | 100 | 0.07 (≈ 0.308 µM) | 1.95 | IC50 ([4]; Human alphaherpesvirus 2, HSV-2 (MS), minimum drug concentration that inhibited the CPE by 50%, read-out: ID50 (the source's name)): 1 µg/mL (≈ 4.4 µM)
2 | O=c1ccn([C@@H]2O[C@H](CO)[C@H]2CO)c(=O)[nH]1 [Example 23, 1-([2'R,3'R,4'S]-3',4'-Bis(hydroxymethyl)-2'-oxetanyl)uracil] |  |  |  | 82 | 320 | 320 |  |  |  | 22 | 22 | 19.4 (≈ 85 µM) | 0.5 | viability at 10 µM ([1]; 10 μM): 84%; viability at 32 µM ([1]; 32 μM): 87%; viability at 100 µM ([1]; 100 μM): 88%; viability at 320 µM ([1]; 320 μM): 82%; inhibition at 10 µM ([3]; 10 μM): 34%; inhibition at 32 µM ([3]; 32 μM): 84%; inhibition at 100 µM ([3]; 100 μM): 100%; inhibition at 320 µM ([3]; 320 μM): 100%
3 | O=c1[nH]c(=O)n([C@@H]2O[C@H](CO)[C@H]2CO)cc1C=CBr [Example 44, 1-([2'R, 3'R, 4'S]-3',4'-Bis(hydroxymethyl)-2'-oxetanyl)-5-(2-bromo-1-vinyl)uracil] | 92 | 92 | 100 | 100 |  |  | 97 | 98 | 99 | 99 | 100 | 0.0032 (≈ 0.00961 µM) |  | viability at 0.0001 µM ([1]; 0.0001 μM): 99%; viability at 0.00032 µM ([1]; 0.00032 μM): 98%; viability at 0.001 µM ([1]; 0.001 μM): 93%; viability at 0.0032 µM ([1]; 0.0032 μM): 100%; viability at 0.01 µM ([1]; 0.01 μM): 97%; viability at 0.032 µM ([1]; 0.032 μM): 94%; inhibition at 0.0001 µM ([3]; 0.0001 μM): 3%; inhibition at 0.00032 µM ([3]; 0.00032 μM): 6%; inhibition at 0.001 µM ([3]; 0.001 μM): 4%; inhibition at 0.0032 µM ([3]; 0.0032 μM): 16%; inhibition at 0.01 µM ([3]; 0.01 μM): 54%
